Measurements: patent US20170342451A1, “BIOSYNTHESIS OF PACLITAXEL INTERMEDIATE” (Board of Trustees of Michigan State University, priority 2012, published 2017)

Legend:
TycA = molecular target: T1, TycA (Brevibacillus parabrevis, UniProt P09095); test: N-acetylcysteamine ligase reaction kinetics, TycA; assay type: biochemical, Brevibacillus brevis; details: NAC with (S)-α-Phe as cosubstrate; for kcat^NAC: TycA with NAC at apparent saturation
T1 construct: this wild-type tycA cDNA encoding the A-, T-, and E-domains was subcloned into a pSU18 vector; made in house; host or cells: Escherichia coli BL21(DE3)
T1 sequence (P09095 with tags, fused parts or gaps): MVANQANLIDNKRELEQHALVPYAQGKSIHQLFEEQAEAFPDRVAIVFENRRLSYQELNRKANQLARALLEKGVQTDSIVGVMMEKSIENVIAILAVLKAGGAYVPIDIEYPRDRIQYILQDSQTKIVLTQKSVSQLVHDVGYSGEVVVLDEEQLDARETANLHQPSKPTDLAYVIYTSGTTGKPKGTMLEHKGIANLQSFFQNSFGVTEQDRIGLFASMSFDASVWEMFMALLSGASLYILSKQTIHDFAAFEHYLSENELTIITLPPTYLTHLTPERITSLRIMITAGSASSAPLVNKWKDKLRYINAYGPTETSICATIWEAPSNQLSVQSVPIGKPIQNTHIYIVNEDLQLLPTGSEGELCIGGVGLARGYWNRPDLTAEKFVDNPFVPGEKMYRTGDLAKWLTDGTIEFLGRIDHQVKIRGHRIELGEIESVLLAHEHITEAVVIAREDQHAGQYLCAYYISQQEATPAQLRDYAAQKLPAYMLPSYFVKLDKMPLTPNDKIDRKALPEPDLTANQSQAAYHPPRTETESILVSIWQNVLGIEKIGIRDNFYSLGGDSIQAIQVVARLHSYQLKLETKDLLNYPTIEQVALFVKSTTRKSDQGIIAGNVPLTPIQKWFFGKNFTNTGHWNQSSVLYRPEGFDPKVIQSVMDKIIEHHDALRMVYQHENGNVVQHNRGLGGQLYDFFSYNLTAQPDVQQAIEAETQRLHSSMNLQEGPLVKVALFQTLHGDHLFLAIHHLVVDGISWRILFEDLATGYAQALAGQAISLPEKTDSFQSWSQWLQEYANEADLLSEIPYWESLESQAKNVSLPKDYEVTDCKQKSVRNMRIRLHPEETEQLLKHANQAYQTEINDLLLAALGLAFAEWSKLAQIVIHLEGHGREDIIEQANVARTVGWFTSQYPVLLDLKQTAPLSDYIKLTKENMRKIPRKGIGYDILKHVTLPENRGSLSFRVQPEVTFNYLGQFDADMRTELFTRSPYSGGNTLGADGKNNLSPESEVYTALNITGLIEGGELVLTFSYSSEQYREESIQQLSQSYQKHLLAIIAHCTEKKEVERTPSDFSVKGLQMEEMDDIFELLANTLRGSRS
Experimental: Substrates (S)-α-phenylalanine, (R)-β-phenylalanine, and (2R,3S)-phenylisoserine (each at 1 mM) were separately incubated with TycA or TycA-S563A (20 μg) in the presence of N-acetylcysteamine (NAC; 1 mM), ATP (1 mM), and Mg^2+ (3 mM) to establish steady-state conditions with respect to protein concentration and time at 31° C. Under steady-state conditions, either (S)-phenylalanine, (R)-β-phenylalanine, or (2R,3S)-phenylisoserine at 5, 10, 20, 40, 80, 160, 250, 500, 1000 and 2000 μM was separately incubated with TycA or TycA-S563A (20 μg), ATP (1 mM), Mg^2+ (3 mM), and N-acetylcysteamine (1 mM, ‘NAC’) in duplicate, single stopped-time ([…]) 100 μL assays. The reactions were quenched by acidification to a pH of about 2 (10% formic acid in distilled water). […] The samples were analyzed on a Quattro-Premier Electro-Spray Mass Spectrometer coupled with Acquity® UPLC system fitted with a C18 Ascentis Express column (2.5×50 mm, 2.7 μm) at 30° C. […] In brief, the effluent from the chromatography column was directed to the Quattro Premier ESI mass spectrometer, in MRM scan mode, to quantify the biosynthetic acyl SNAC products. […] A standard curve was used to convert the peak area under the curve of the monitored fragment ion to concentration for each biosynthetic phenylpropionyl SNAC.
(§1) Authentic (5)-α-phenylalanyl, (R/S)-β-phenylalanyl- and (2R,3S)-phenylisoserinyl-SNAC were used to construct the standard curves by correlating the peak area under the curve of the monitored ion to concentration of the standard (at 0.16, 0.32, 0.64, 1.3, 2.5, 5, 10, 20, 40, 80, 160 and 320 μM) using linear regression analysis.
The KM values of TycA and TycA-S563A for N-acetylcysteamine (NAC) was assessed by incubating each enzyme separately with (S)-α-phenylalanine (1 mM), MgCl2 (3 mM), ATP (1 mM), and N-acetylcysteamine at 5, 10, 20, 40, 80, 160, 250, 500, 1000 and 2000 μM at 31° C. for 20 min. […]

TycA-S563A = TycA-S563A (Brevibacillus parabrevis, UniProt P09095, S563A); details: for kcat^NAC: TycA-S563A with NAC at apparent saturation
Experimental: Substrates (S)-α-phenylalanine, (R)-β-phenylalanine, and (2R,3S)-phenylisoserine (each at 1 mM) were separately incubated with TycA or TycA-S563A (20 μg) in the presence of N-acetylcysteamine (NAC; 1 mM), ATP (1 mM), and Mg^2+ (3 mM) to establish steady-state conditions with respect to protein concentration and time at 31° C. Under steady-state conditions, either (S)-phenylalanine, (R)-β-phenylalanine, or (2R,3S)-phenylisoserine at 5, 10, 20, 40, 80, 160, 250, 500, 1000 and 2000 μM was separately incubated with TycA or TycA-S563A (20 μg), ATP (1 mM), Mg^2+ (3 mM), and N-acetylcysteamine (1 mM, ‘NAC’) in duplicate, single stopped-time ([…]) 100 μL assays. The reactions were quenched by acidification to a pH of about 2 (10% formic acid in distilled water). (N-Boc)-α-phenylalanyl-SNAC (1 μM) was added as an internal standard when (S)-α-phenylalanine or (2,3)-phenylisoserine was used as the substrate; alternatively, (N-Boc)-β-phenylalanyl-SNAC (1 μM) was added as an internal standard when (R)-β-phenylalanine was used as the substrate (the synthesis is described below). The samples were analyzed on a Quattro-Premier Electro-Spray Mass Spectrometer coupled with Acquity® UPLC system fitted with a C18 Ascentis Express column (2.5×50 mm, 2.7 μm) at 30° C. An aliquot (5 μL) of each sample was loaded onto the column and the analytes were eluted with a solvent gradient of […] 0.05% triethylamine in distilled water (Solvent B) (held at 2.5% Solvent A for […], increased to 100% A over 5 sec with a 2-min hold, and then returned to 2.5% Solvent A over 5 sec with a 50-sec hold) at a flow rate of 0.4 mL/min. In brief, the effluent from the chromatography column was directed to the Quattro Premier ESI mass spectrometer, in MRM scan mode, to quantify the biosynthetic acyl SNAC products. The transition ions derived from the corresponding molecular ions were m/z 120.06, 131.10 and 105.95 for (S)-α-phenylalanyl-SNAC, (R)-β-phenylalanyl-SNAC and (2R,3S)-phenylisoserinyl-SNAC, respectively. A standard curve was used to convert the peak area under the curve of the monitored fragment ion to concentration for each biosynthetic phenylpropionyl SNAC.
as §1
The KM values of TycA and TycA-S563A for N-acetylcysteamine (NAC) was assessed by incubating each enzyme separately with (S)-α-phenylalanine (1 mM), MgCl2 (3 mM), ATP (1 mM), and N-acetylcysteamine at 5, 10, 20, 40, 80, 160, 250, 500, 1000 and 2000 μM at 31° C. for 20 min. The reactions were quenched by acidification to a pH of about 2 (10% formic acid in distilled water), and an internal standard, (N-Boc)-α-phenylalanyl-SNAC (1 μM), was added to each sample to correct for variations of the analyte. The [S-(acyl)-N-(acetyl)]cysteamine (SNAC) thioester products of the enzyme-catalyzed reaction were quantified by a liquid chromatography multiple reaction monitoring (MRM) mass spectrometry technique, and the monitored fragment ion (m/z 120) derived from the SNAC moiety of thioester analyte in the effluent was quantified identically to the procedure described earlier.

[1] = NAC with (S)-α-Phe as cosubstrate

Compound	kcat^NAC (TycA)	Km (TycA; TycA with NAC)	kcat^NAC (TycA-S563A; [1])	Km (TycA-S563A; TycA-S563A with NAC, NAC with (S)-α-Phe as cosubstrate)	decrease in turnover, TycA-S563A compared to TycA (TycA-S563A; NAC cosubstrate)	increase in KM, TycA-S563A compared to TycA (TycA-S563A; NAC cosubstrate)	lower catalytic efficiency of TycA-S563A compared to that of TycA (TycA-S563A; NAC cosubstrate)
N[C@@H](c1ccccc1)[C@@H](O)C(=O)O [(2R,3S)-PheIso, (2R,3S)-phenylisoserine]	0.00317 ± 0.00017 s⁻¹	132 ± 56 µM	0.00517 ± 0.00083 s⁻¹	512 ± 43 µM	–	–	–
N[C@H](CC(=O)O)c1ccccc1 [(R)-β-Phe, (R)-β-phenylalanine]	0.006 ± 0.001 s⁻¹	–	0.0004 ± 1.7e-05 s⁻¹	–	15 fold	~2 fold	~30 fold
